Assay results reported in patent US20040265979A1, “Novel macrophage foam cell formation inhibitor fka-25 and process for producing the same” (priority 2004, published 2004).

Key:
[1] = Physico-chemical properties: solubility in solvents, acidity/basicity; format: physicochemical
Source text: Physico-chemical properties of FKA-25 substance of the present invention are as follows.

[2] = test system: Macrophages isolated from mice peritoneum; test: Formation of cholesteryl ester and lipid droplet in mouse intraperitoneal macrophages ([1-14C]oleic acid incorporation, TLC); format: cell-based; conditions: Macrophage, mouse peritoneal macrophages, liposome + [1-14C]oleic acid
Source text: Inhibitory action of FKA-25 substance of the present invention against intraperitoneal formation of cholesteryl ester and lipid droplet in mice is explained as follows.
Formation of cholesteryl ester and lipid droplet in mice in the intraperitoneal macrophage was examined according to the method of Namatame et al. (J. Biochem. 125, 319-327, 1999).
Macrophages isolated from mice peritoneum were suspended in Dulbecco modified Eagle's medium containing 6.8% lipoprotein deficient serum (6.8% LPDS-DMEM) 2.0×10^6 cells/ml, and plated each 0.25 ml into 48 well microplate (Corning Inc.) or slide chamber (Nunc Inc.).
The plate was incubated in 5% carbon dioxide incubator at 37° C. for 2 hours, then cells without attachment were removed by washing with Hank's solution. After washing, cells were incubated with 6.8% LPDS-DMEM for 1 hour, and FKA-25 substance (2.5 μl methanol), liposome (a composition consisting of phosphatidylcholine/phosphatidylserine/dicetylphosphate/cholesterol=10:10:2:15 (n mol) in 0.3 M glucose 10 μl) and [1-^14C]oleic acid (5 μl, 0.05 μCi, 1 nmol) were added, then incubated for 14 hours.
Cultured supernatant was removed off and intracellular neutral lipid was extracted twice by adding hexane 0.6 ml and isopropanol 0.4 ml. […] The separated [^14C]cholesteryl oleate and [^14C]triacylglycerol were quantitatively measured by using radio scanner (Ambis Inc., the U.S.). […]

CC(C)=CCc1c(C(O)C2OC2(C)C)ccc2[nH]c3c(c12)CC1CCC2(O)C(C)(C)C(=O)CCC2(C)C31C (centres unmarked) [FKA-25 substance]
Differentiation from acidity, neutrality and basicity [1]: weak basic substance | Solubility in solvents ([1]; in methanol, acetone, chloroform and ethyl acetate): Soluble | Solubility in solvents ([1]; in water and hexane): slightly soluble | inhibition at 3.2 µM ([2]; at 3.2 μM, 14 hours, read-out: inhibition of the formation of triacylglycerol): ~50% | IC50 ([2]; incubated for 14 hours, read-out: IC50, inhibition of the formation of [14C]cholesteryl oleate): 4 µM
